Test results as given in patent publication US20170304228A1, “NEW INDICATION OF CINACALCET HCL PHARMACEUTICAL COMPOSITION FOR TREATING CANCER” (LAUNX BIOMEDICAL CO., LTD., priority 2014, published 2017).
Several values for one entry are separate records, joined by “and”; a condition that tells them apart may be missing. Equal entries are not always repeated. Structures can show the parent of a compound that is named as a salt. Where two headings read alike, the source gives them in different places.

What was measured:
[1] = system: U2OS; assay: Cell viability analysis (WST-1), U2OS; type: cell-based; conditions: Homo sapiens, read-out: survival rate (viability) of cells
Description: (§1) The cell numbers were counted and reseed as 2×10^6 in culture plate/flask. Then, the culture medium were added to a volume of 10 ml, and the cells were cultured for 2-3 days. Then, the cells were suspended for loading into 96-well plates. The number of cells was 3000 and the volume of the culture medium was 100 μl each well.
(§2) Removing the original culture medium from 96-well plate. Then add 100 μl of commercially drug at a concentration of 10 μM per well. After 72 hours, add the diluted WST-1 reagent to the well with 100 μl/well, and the diluted WST-1 reagent was acquired from the dilution of 9:1 medium and WST-1 stock reagent. Finally, the total volume of each well was 200 μl/well. Culture the 96-well plate at 37° C. for 30 to 90 minutes. Detecting and calculate the survival rate of each cancer cells with an ELISA reader at OD450 nm. The lower viability of cancer cells represents better inhibition effect via the Cinacalcet HCl drug. Otherwise, the higher viability of cancer cells represents worse inhibition effect via the Cinacalcet HCl drug.
This inhibition test of Cinacalcet HCl on other cancer cells were using osteosarcoma cell line U2OS (Table 14), skin cancer cell lines A375 and BCC (Table 15). The inhibitory tests of Cinacalcet HCl were performed 4 times for each cell lines and then the average value of the inhibitory tests was calculated.

[2] = system: skin cancer cells; assay: Summary of cell viability, skin cancer cells; type: cell-based; conditions: 72 hours, read-out: Inhibitory effect
Description: as §1, §2
(§3) Cinacalcet HCl is having different inhibitory effect on different tumor cell type even in the same cancer. […] (FIG. 1)

[3] = system: gastric cancer cells (AGS); assay: Animal model test of gastric cancer, tumor size; type: in vivo, mice
Description: In this invention, the female mice were(BALB/cAnN.Cg-Foxnl™/CrlNarl) and purchased from National Laboratory Animal Center (Taiwan). The weight of the mice were 21±1 g. These mice were subcutaneously injected with gastric cancer cells (AGS) and then put these mice into different cages at random. The drug test experiment was divided into three groups, include “control group”, “low dose group (100 mg/kg/day)”, “high dose group (200 mg/kg/day)”. These mice were then injected test drug intraperitoneally once daily […]. The tumor sizes and body weight were measured twice a week. The tumor sizes were measured and calculated by formula: (L×W^2)/2. L represents the tumor longest length. W represents the tumor shortest diameter.

[4] = system: prostate cancer cells; assay: Summary of cell viability, prostate cancer cells; type: cell-based; conditions: 72 hours, read-out: Inhibitory effect
Description: as §1, §2, §3

[5] = system: TOV-21G; assay: Cell viability analysis (WST-1), TOV-21G; type: cell-based; conditions: Homo sapiens, TOV21G, read-out: survival rate (viability) of cells
Description: as §1, §2
(§4) This inhibition test of Cinacalcet HCl on endocrine-related cancer cells were using prostate cancer cell lines PC-3 and LNCap (Table 6), breast cancer cell lines MCF7 and MDA-MB-231 (Table 7), and ovarian cancer cell lines NIH-OVCAR-3 and TOV-21G (Table 8). The inhibitory tests of Cinacalcet HCl were performed 4 times for each cell lines and then the average value of the inhibitory tests was calculated.

[6] = system: LNCap; assay: Cell viability analysis (WST-1), LNCap; type: cell-based; conditions: Homo sapiens, 72 hours, Average of tests, read-out: survival rate (viability) of cells
Description: as §1
as §2, with “Otherwise, the higher viability of cancer cells represents worse inhibition effect via the Cinacalcet HCl drug.” left out
as §4

[7] = system: cervical cancer cells; assay: Summary of cell viability, cervical cancer cells; type: cell-based; conditions: 72 hours, read-out: Inhibitory effect
Description: as §1, §2, §3

[8] = system: T24; assay: Cell viability analysis (WST-1), T24; type: cell-based; conditions: Homo sapiens, read-out: survival rate (viability) of cells
Description: as §1, §2
This inhibition test of Cinacalcet HCl on abdominal-related cancer cells were using bladder cancer cell line TSGH and T24 (Table 3), cervical cancer cell lines HeLa and C-33A (Table 4), renal cancer cell line 786-O (Table 5). The inhibitory tests of Cinacalcet HCl were performed 4 times for each cell lines and then the average value of the inhibitory tests was calculated.

[9] = system: Hep3B; assay: Cell viability analysis (WST-1), Hep3B; type: cell-based; conditions: Homo sapiens, read-out: survival rate (viability) of cells
Description: as §1, §2
(§5) This inhibition test of Cinacalcet HCl on gastrointestinal tract-related cancer cells were using gastric cancer cell lines AGS and MKN-45 (Table 9), hepatic cancer cell lines HepG2 and Hep3B (Table 10), colorectal cancer cell lines HCT116-wt and LoVo (Table 11), pancreatic cancer cell line AsPC-1 and BxPC-3(Table 12), tongue cancer cell line SAS (Table 13). The inhibitory tests of Cinacalcet HCl were performed 4 times for each cell lines and then the average value of the inhibitory tests was calculated.

[10] = system: AsPC-1; assay: Cell viability analysis (WST-1), AsPC-1; type: cell-based; conditions: Homo sapiens, read-out: survival rate (viability) of cells
Description: as §1, §2, §5

[11] = Low dose (100 mg/kg/day) intraperitoneally, First measurement, average
[12] = Low dose (100 mg/kg/day) intraperitoneally, First measurement, single mice A, B, C, hydrochloride, 100 mg/kg/day
[13] = Low dose (100 mg/kg/day) intraperitoneally, Fourth measurement, average
[14] = Low dose (100 mg/kg/day) intraperitoneally, Fourth measurement, single mice A, B, C, hydrochloride, 100 mg/kg/day
[15] = Low dose (100 mg/kg/day) intraperitoneally, Second measurement, average
[16] = Low dose (100 mg/kg/day) intraperitoneally, Second measurement, single mice A, B, C, hydrochloride, 100 mg/kg/day
[17] = Low dose (100 mg/kg/day) intraperitoneally, Third measurement, average
[18] = both low dose and high dose, FIG. 3
[19] = high dose (200 mg/kg/day) intraperitoneally, First measurement, average
[20] = high dose (200 mg/kg/day) intraperitoneally, First measurement, single mice A, B, C, hydrochloride, 200 mg/kg/day
[21] = high dose (200 mg/kg/day) intraperitoneally, Fourth measurement, average
[22] = high dose (200 mg/kg/day) intraperitoneally, Second measurement, average
[23] = high dose (200 mg/kg/day) intraperitoneally, Second measurement, single mice A, B, C, hydrochloride, 200 mg/kg/day
[24] = high dose (200 mg/kg/day) intraperitoneally, Third measurement, average
[25] = high dose (200 mg/kg/day) intraperitoneally, Third measurement, single mice A, B, C, hydrochloride, 200 mg/kg/day

C[C@@H](NCCCc1cccc(C(F)(F)F)c1)c1cccc2ccccc12 [Cinacalcet HCl, Cinacalcet hydrochloride]
viability at 10 µM ([1]; 72 h, average of tests): 77.4%
viability at 10 µM ([1]; 72 hours, test 6-26-10 min): 82.6%
viability at 10 µM ([1]; 72 hours, test 6-28-10 min): 86.7%
viability at 10 µM ([1]; 72 hours, test 6-30-10 min): 64.9%
viability at 10 µM ([1]; 72 hours, test 7-3-10 min): 75.3%
viability at 10 µM [2]: 80%
tumor volume [3, 11]: 592 mm3
tumor volume growth [3, 11]: 592 mm3
tumor longest length [3, 12]: 11 mm and 13 mm and 14 mm
tumor width [3, 12]: 8 mm and 12 mm
tumor volume [3, 13]: 562.1667 mm3
tumor volume growth [3, 13]: −240.3333 mm3
tumor longest length [3, 14]: 10 mm and 14 mm and 13 mm
tumor width [3, 14]: 7 mm and 13 mm
tumor volume [3, 15]: 277.5 mm3
tumor volume growth [3, 15]: −314.5 mm3
tumor longest length [3, 16]: 8 mm and 16 mm and 9 mm
tumor width [3, 16]: 5 mm and 8 mm and 7 mm
tumor volume [3, 17]: 802.5 mm3
tumor volume growth [3, 17]: 525 mm3
inhibition effect on tumor cells ([3]; both low dose and high dose, FIG. 2): significant inhibition effect
tumor volume [3, 18]: can also reduce the tumor volume
tumor volume growth [3, 18]: effectively slow down the tumor volume growth
tumor volume [3, 19]: 81.17 mm3
tumor volume growth [3, 19]: 81.17 mm3
tumor longest length [3, 20]: 7 mm and 6 mm
tumor width [3, 20]: 5 mm and 6 mm and 4 mm
tumor volume [3, 21]: 22.33 mm3
tumor volume growth [3, 21]: −56.8333 mm3
tumor volume [3, 22]: 131.1667 mm3
tumor volume growth [3, 22]: 50 mm3
tumor longest length [3, 23]: 7 mm and 6 mm
tumor width [3, 23]: 7 mm and 5 mm
tumor volume [3, 24]: 79.17 mm3
tumor volume growth [3, 24]: −52 mm3
tumor width ([3]; high dose (200 mg/kg/day) intraperitoneally, Third measurement, single mice A, B, C): 5 mm
tumor longest length [3, 25]: 7 mm and 6 mm
tumor volume [3, 25]: 87.5 mm3 and 75 mm3
inhibition of tumor growth, high doses compared with low dose ([3]; high doses, FIG. 3): better effect to inhibit tumor growth
viability at 10 µM [4]: 81.7%
viability at 10 µM ([5]; 72 h, average of tests): 113%
viability at 10 µM ([5]; 72 hours, test 7-3-30 min): 129%
viability at 10 µM ([5]; 72 hours, test 7-4-30 min): 109%
viability at 10 µM ([5]; 72 hours, test 7-7-30 min): 104%
viability at 10 µM ([5]; 72 hours, test -4-30 min): 108%
viability at 10 µM [6]: 52.6%
viability at 10 µM [7]: 111%
viability at 10 µM ([8]; T-24, 10 μM, 72 hours, test T24-1-30 min): 71.1%
viability at 10 µM ([8]; T-24, 10 μM, 72 hours, test T24-2-20 min): 133%
viability at 10 µM ([8]; T-24, 10 μM, 72 hours, test T24-3-20 min): 177%
viability at 10 µM ([8]; T-24, 10 μM, 72 hours, test T24-4-20 min): 103%
viability at 10 µM ([8]; T-24, 72 h, 10 μM, average of tests): 121%
viability at 10 µM ([9]; 72 h, average of tests): 134%
viability at 10 µM ([9]; 72 hours, test 0612-20 min): 143%
viability at 10 µM ([9]; 72 hours, test 0614-20 min): 125%
viability at 10 µM ([9]; 72 hours, test 0616-20 min): 152%
viability at 10 µM ([9]; 72 hours, test 0619-20 min): 117%
viability at 10 µM ([10]; ASPC1, 10 μM, 72 hours, test 1-4-30 min): 71.9%
viability at 10 µM ([10]; ASPC1, 10 μM, 72 hours, test 1-7-3-30 min): 61.6%
viability at 10 µM ([10]; ASPC1, 10 μM, 72 hours, test 1-7-4-30 min): 81.7%
viability at 10 µM ([10]; ASPC1, 10 μM, 72 hours, test 1-7-7-30 min): 60.4%
viability at 10 µM ([10]; ASPC1, 72 h, 10 μM, Average of tests): 68.9%
